Results: patent US8785401B2, “Methods for treating diseases having an inflammatory component related to phospholipase A2” (Philadelphia Health & Education Corporation, priority 2005, dated 2014)

Test system: sPLA2
Conditions: CHEC-9 0.4 μM, LY31127 5.0 μM, whole blood, two 90 min periods at 4°

## CCc1c(CC(N)=O)c2cc(OCCCP(=O)(O)O)ccc2n1Cc1ccccc1 [LY311727]
  comparison of sPLA2 inhibition by the inhibitors alone and in sequence: equally effective inhibitors
